# Reference: ChEMBL document CHEMBL5331121, “Preferred Conformation-Guided Discovery of Potent and Orally Active HIF Prolyl Hydroxylase 2 Inhibitors for the Treatment of Anemia” (J Med Chem, 2023)
# The source made the active and inactive calls. The calls are words filed in the database; no cut-off is given here.
# Columns and labels:
# [1] = Half life in Sprague-Dawley rat at 1 mg/kg, iv measured upto 24 hrs by LC-MS/MS analysis; assay type: ADME, organism-based; settings: in vivo
# [2] = Apparent volume of distribution in Sprague-Dawley rat at 1 mg/kg, iv measured upto 24 hrs by LC-MS/MS analysis; assay type: ADME, organism-based; settings: in vivo, read-out: Vz
# [3] = Clearance in Sprague-Dawley rat at 1 mg/kg, iv measured upto 24 hrs by LC-MS/MS analysis; assay type: ADME, organism-based; settings: in vivo
# [4] = AUC(0 to infinity) in Sprague-Dawley rat at 1 mg/kg, iv measured upto 24 hrs by LC-MS/MS analysis; assay type: ADME, organism-based; design: time < 24 hrs, dose 1 mg/kg, route iv; settings: in vivo
# [5] = Oral bioavailability in Sprague-Dawley rat at 10 mg/kg measured upto 24 hrs by LC-MS/MS analysis; assay type: ADME, organism-based; settings: in vivo
# [6] = AUC(0 to t) in Sprague-Dawley rat at 1 mg/kg, iv measured upto 24 hrs by LC-MS/MS analysis; assay type: ADME, organism-based; design: dose 1 mg/kg, time < 24 hrs, route iv; settings: in vivo
# [7] = target: Egl nine homolog 1 (Homo sapiens, UniProt Q9GZT9); experiment: Binding affinity to […] PHD2 (181 to 426 residues) (unknown origin) by fluorescence polarization assay
# Chain of Egl nine homolog 1 (Q9GZT9 whole entry, the tested form may be a part): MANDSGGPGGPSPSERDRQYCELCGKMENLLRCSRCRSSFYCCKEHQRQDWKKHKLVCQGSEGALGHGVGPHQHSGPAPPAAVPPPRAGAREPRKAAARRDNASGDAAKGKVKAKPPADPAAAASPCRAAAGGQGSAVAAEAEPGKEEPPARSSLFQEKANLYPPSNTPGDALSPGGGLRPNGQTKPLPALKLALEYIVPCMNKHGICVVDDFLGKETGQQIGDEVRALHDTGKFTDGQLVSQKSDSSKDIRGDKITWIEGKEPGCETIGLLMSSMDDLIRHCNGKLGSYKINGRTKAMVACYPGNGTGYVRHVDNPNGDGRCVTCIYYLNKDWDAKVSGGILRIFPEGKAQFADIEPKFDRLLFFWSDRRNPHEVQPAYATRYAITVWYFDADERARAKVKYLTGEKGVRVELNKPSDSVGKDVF
# [8] = Metabolic stability in rat liver microsomes assessed as clearance at 1 uM preincubated for 5 mins followed by NADPH addition and measured upto 60 mins by LC-MS/MS analysis; assay type: ADME, Microsome; settings: time < 65 min, read-out: CLH
# [9] = system: Mus musculus; experiment: Upregulation of reticulocytes in C57BL/6J mouse at 10 mg/kg, po administered once daily for 3 days; assay type: functional, organism-based; settings: time 3.0 day
# [10] = system: Hep 3B2; experiment: Cytotoxicity against human Hep3B cells incubated for 48 hrs by CCK-8 assay; assay type: toxicity, cell-based; settings: hep 3b2, 48 h
# [11] = target: Hypoxia-inducible factor 1-alpha (Homo sapiens) (UniProt Q16665); experiment: Induction of HIF-1alpha stabilization in human Hep3B cells at 20 to 50 uM by Western blotting analysis; assay type: cell-based; settings: dose 20-50 µM
# Chain of Hypoxia-inducible factor 1-alpha (Homo sapiens) (Q16665 whole entry, looked up, the tested form may be a part): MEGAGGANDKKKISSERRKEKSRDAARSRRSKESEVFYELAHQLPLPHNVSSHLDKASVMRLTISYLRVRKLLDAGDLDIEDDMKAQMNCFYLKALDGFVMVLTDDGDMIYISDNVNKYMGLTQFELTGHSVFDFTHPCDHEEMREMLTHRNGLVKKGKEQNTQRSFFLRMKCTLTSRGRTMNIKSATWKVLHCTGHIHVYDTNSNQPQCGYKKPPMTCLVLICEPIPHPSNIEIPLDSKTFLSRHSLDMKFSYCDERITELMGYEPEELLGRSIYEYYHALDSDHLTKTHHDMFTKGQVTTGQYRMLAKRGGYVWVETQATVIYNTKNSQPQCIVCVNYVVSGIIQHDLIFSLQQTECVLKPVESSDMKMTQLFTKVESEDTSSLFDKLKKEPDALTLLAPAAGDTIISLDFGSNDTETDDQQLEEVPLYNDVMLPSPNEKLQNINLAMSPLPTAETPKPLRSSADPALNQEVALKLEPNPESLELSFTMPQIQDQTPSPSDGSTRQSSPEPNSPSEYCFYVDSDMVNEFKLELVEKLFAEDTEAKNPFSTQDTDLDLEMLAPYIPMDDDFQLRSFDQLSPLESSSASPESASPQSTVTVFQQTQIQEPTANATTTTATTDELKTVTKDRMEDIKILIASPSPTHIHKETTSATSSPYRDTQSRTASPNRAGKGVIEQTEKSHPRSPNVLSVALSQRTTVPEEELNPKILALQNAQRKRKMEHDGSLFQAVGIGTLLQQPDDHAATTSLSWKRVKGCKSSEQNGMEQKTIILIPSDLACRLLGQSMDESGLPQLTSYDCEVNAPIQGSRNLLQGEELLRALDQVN
# [12] = target: Endothelial PAS domain-containing protein 1 (Homo sapiens) (UniProt Q99814); experiment: Induction of HIF-2alpha stabilization in human Hep3B cells at 20 to 50 uM by Western blotting analysis; assay type: cell-based; settings: dose 20-50 µM
# Chain of Endothelial PAS domain-containing protein 1 (Homo sapiens) (Q99814 whole entry, the tested form may be a part): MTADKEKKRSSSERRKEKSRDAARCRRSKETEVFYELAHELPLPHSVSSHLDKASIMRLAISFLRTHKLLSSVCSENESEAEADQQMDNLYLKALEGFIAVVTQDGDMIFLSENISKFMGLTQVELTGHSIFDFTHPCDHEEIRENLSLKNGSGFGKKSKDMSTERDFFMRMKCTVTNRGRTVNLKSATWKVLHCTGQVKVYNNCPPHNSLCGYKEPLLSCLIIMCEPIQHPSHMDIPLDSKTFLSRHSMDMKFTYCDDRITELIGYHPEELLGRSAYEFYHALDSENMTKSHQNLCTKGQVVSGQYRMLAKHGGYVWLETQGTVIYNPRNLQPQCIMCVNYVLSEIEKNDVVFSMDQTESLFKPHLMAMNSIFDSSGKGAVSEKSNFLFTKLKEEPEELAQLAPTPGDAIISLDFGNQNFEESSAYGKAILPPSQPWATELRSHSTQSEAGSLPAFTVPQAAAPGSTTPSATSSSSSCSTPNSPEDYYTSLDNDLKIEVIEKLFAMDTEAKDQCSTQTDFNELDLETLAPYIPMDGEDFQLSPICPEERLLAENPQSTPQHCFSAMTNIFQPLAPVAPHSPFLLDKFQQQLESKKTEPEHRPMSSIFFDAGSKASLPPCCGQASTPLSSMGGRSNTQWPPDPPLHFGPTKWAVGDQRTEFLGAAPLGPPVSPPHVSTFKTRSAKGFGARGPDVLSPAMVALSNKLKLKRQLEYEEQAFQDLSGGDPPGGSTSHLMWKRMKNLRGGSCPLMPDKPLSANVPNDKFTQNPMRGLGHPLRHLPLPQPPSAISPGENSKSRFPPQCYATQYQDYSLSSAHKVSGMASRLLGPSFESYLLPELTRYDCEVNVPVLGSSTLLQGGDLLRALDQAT
# [13] = system: Hep 3B2; experiment: Upregulation of EPO mRNA level in human Hep3B cells incubated for 12 hrs by RT-qPCR analysis; assay type: functional, cell-based; settings: dose 5-20 µM
# [14] = Upregulation of EPO mRNA level in human Hep3B cells assessed as fold increase at 20 uM incubated for 12 hrs by RT-qPCR analysis; assay type: functional, Hep 3B2
# [15] = system: Hep 3B2; experiment: Effect on VEGFA gene expression in human Hep3B cells at 5 to 20 uM incubated for 12 hrs by RT-qPCR analysis; assay type: functional, cell-based; settings: dose 5-20 µM
# [16] = system: Erythrocyte; experiment: Upregulation of reticulocytes in C57BL/6J mouse assessed as increase in RBC at 10 to 50 mg/kg, po administered once daily for 3 days; assay type: functional, organism-based; settings: dose 10-50 mg/kg, time 3.0 day
# [17] = Tmax in Sprague-Dawley rat at 10 mg/kg, po measured upto 24 hrs by LC-MS/MS analysis; assay type: ADME, organism-based; settings: in vivo
# [18] = Cmax in Sprague-Dawley rat at 10 mg/kg, po measured upto 24 hrs by LC-MS/MS analysis; assay type: ADME, organism-based; design: time < 24 hrs, dose 10 mg/kg, route po; settings: in vivo
# [19] = AUC(0 to t) in Sprague-Dawley rat at 10 mg/kg, po measured upto 24 hrs by LC-MS/MS analysis; assay type: ADME, organism-based; design: time < 24 hrs, dose 10 mg/kg, route po; settings: in vivo
# [20] = AUC(0 to infinity) in Sprague-Dawley rat at 10 mg/kg, po measured upto 24 hrs by LC-MS/MS analysis; assay type: ADME, organism-based; design: dose 10 mg/kg, time < 24 hrs, route po; settings: in vivo
# [21] = Clearance in Sprague-Dawley rat at 10 mg/kg, po measured upto 24 hrs by LC-MS/MS analysis; assay type: ADME, organism-based; settings: in vivo
# [22] = Apparent volume of distribution in Sprague-Dawley rat at 10 mg/kg, po measured upto 24 hrs by LC-MS/MS analysis; assay type: ADME, organism-based; settings: in vivo
# [23] = Mean residence time (0 to infinity) in Sprague-Dawley rat at 10 mg/kg, po measured upto 24 hrs by LC-MS/MS analysis; assay type: ADME, organism-based; settings: in vivo
# [24] = Mean residence time (0 to infinity) in Sprague-Dawley rat at 1 mg/kg, iv measured upto 24 hrs by LC-MS/MS analysis; assay type: ADME, organism-based; settings: in vivo
# [25] = Tmax in mouse at 10 mg/kg, po measured upto 24 hrs by LC-MS/MS analysis; assay type: ADME, organism-based; settings: in vivo
# [26] = Cmax in mouse at 10 mg/kg, po measured upto 24 hrs by LC-MS/MS analysis; assay type: ADME, organism-based; design: time < 24 hrs, dose 10 mg/kg, route po; settings: in vivo
# [27] = AUC(0 to t) in mouse at 10 mg/kg, po measured upto 24 hrs by LC-MS/MS analysis; assay type: ADME, organism-based; design: dose 10 mg/kg, time < 24 hrs, route po; settings: in vivo
# [28] = AUC(0 to infinity) in mouse at 10 mg/kg, po measured upto 24 hrs by LC-MS/MS analysis; assay type: ADME, organism-based; design: dose 10 mg/kg, time < 24 hrs, route po; settings: in vivo
# [29] = Half life in mouse at 10 mg/kg, po measured upto 24 hrs by LC-MS/MS analysis; assay type: ADME, organism-based; settings: in vivo
# [30] = Clearance in mouse at 10 mg/kg, po measured upto 24 hrs by LC-MS/MS analysis; assay type: ADME, organism-based; settings: in vivo
# [31] = Apparent volume of distribution in mouse at 10 mg/kg, po measured upto 24 hrs by LC-MS/MS analysis; assay type: ADME, organism-based; settings: in vivo
# [32] = Mean residence time (0 to infinity) in mouse at 10 mg/kg, po measured upto 24 hrs by LC-MS/MS analysis; assay type: ADME, organism-based; settings: in vivo
# [33] = Oral bioavailability in mouse at 10 mg/kg measured upto 24 hrs by LC-MS/MS analysis; assay type: ADME, organism-based; settings: in vivo
# [34] = AUC(0 to t) in mouse at 1 mg/kg, iv measured upto 24 hrs by LC-MS/MS analysis; assay type: ADME, organism-based; design: time < 24 hrs, dose 1 mg/kg, route iv; settings: in vivo
# [35] = AUC(0 to infinity) in mouse at 1 mg/kg, iv measured upto 24 hrs by LC-MS/MS analysis; assay type: ADME, organism-based; design: time < 24 hrs, dose 1 mg/kg, route iv; settings: in vivo
# [36] = Half life in mouse at 1 mg/kg, iv measured upto 24 hrs by LC-MS/MS analysis; assay type: ADME, organism-based; settings: in vivo
# [37] = Clearance in mouse at 1 mg/kg, iv measured upto 24 hrs by LC-MS/MS analysis; assay type: ADME, organism-based; settings: in vivo
# [38] = Apparent volume of distribution in mouse at 1 mg/kg, iv measured upto 24 hrs by LC-MS/MS analysis; assay type: ADME, organism-based; settings: in vivo, read-out: Vz
# [39] = Mean residence time (0 to infinity) in mouse at 1 mg/kg, iv measured upto 24 hrs by LC-MS/MS analysis; assay type: ADME, organism-based; settings: in vivo
# [40] = Toxicity in ICR mouse assessed as animal death at 800 mg/kg, po; assay type: organism-based; settings: in vivo
# [41] = Toxicity in ICR mouse assessed as behavioral abnormalities at 50 to 200 mg/kg, po administered every other day for 14 days; assay type: organism-based; settings: in vivo, 336 h, dose 50-200 mg/kg, time 14 day
# [42] = Toxicity in ICR mouse assessed as effect on body weight at 50 to 200 mg/kg, po administered every other day for 14 days; assay type: organism-based; settings: in vivo, 336 h, dose 50-200 mg/kg, time 14 day
# [43] = Toxicity in ICR mouse assessed as effect on food intake at 50 to 200 mg/kg, po administered every other day for 14 days; assay type: organism-based; settings: in vivo, 336 h, dose 50-200 mg/kg, time 14 day
# [44] = Toxicity in ICR mouse assessed as change in heart to body weight ratio at 50 to 200 mg/kg, po administered every other day for 14 days; assay type: organism-based; settings: in vivo, 336 h, dose 50-200 mg/kg, time 14 day
# [45] = Toxicity in ICR mouse assessed as change in liver to body weight ratio at 50 to 200 mg/kg, po administered every other day for 14 days; assay type: organism-based; settings: in vivo, 336 h, dose 50-200 mg/kg, time 14 day
# [46] = Toxicity in ICR mouse assessed as change in spleen to body weight ratio at 50 to 200 mg/kg, po administered every other day for 14 days; assay type: organism-based; settings: in vivo, 336 h, dose 50-200 mg/kg, time 14 day
# [47] = Toxicity in ICR mouse assessed as change in lungs to body weight ratio at 50 to 200 mg/kg, po administered every other day for 14 days; assay type: organism-based; settings: in vivo, 336 h, dose 50-200 mg/kg, time 14 day
# [48] = Toxicity in ICR mouse assessed as change in kidney to body weight ratio at 50 to 200 mg/kg, po administered every other day for 14 days; assay type: organism-based; settings: in vivo, 336 h, dose 50-200 mg/kg, time 14 day
# [49] = Toxicity in ICR mouse assessed as heart damage at 50 to 200 mg/kg, po administered every other day for 14 days; assay type: organism-based; settings: in vivo, 336 h, dose 50-200 mg/kg, time 14 day
# [50] = Toxicity in ICR mouse assessed as liver damage at 50 to 200 mg/kg, po administered every other day for 14 days; assay type: organism-based; settings: in vivo, 336 h, dose 50-200 mg/kg, time 14 day
# [51] = Toxicity in ICR mouse assessed as spleen damage at 50 to 200 mg/kg, po administered every other day for 14 days; assay type: organism-based; settings: in vivo, 336 h, dose 50-200 mg/kg, time 14 day
# [52] = Toxicity in ICR mouse assessed as lung damage at 50 to 200 mg/kg, po administered every other day for 14 days; assay type: organism-based; settings: in vivo, 336 h, dose 50-200 mg/kg, time 14 day
# [53] = Toxicity in ICR mouse assessed as kidney damage at 50 to 200 mg/kg, po administered every other day for 14 days; assay type: organism-based; settings: in vivo, 336 h, dose 50-200 mg/kg, time 14 day
# [54] = Hepatotoxicity in ICR mouse at 50 to 200 mg/kg, po administered every other day for 14 days; assay type: toxicity, organism-based; settings: in vivo, 336 h, dose 50-200 mg/kg, time 14 day
# [55] = Nephrotoxicity in ICR mouse at 50 to 200 mg/kg, po administered every other day for 14 days; assay type: toxicity, organism-based; settings: in vivo, 336 h, dose 50-200 mg/kg, time 14 day
compound,measurement,setting,value
O=C(O)CNC(=O)c1ncc(C2CCN(C(=O)CNc3ccc(Cl)cc3)CC2)cc1O,half-life,[1],223 min
same,Vd,[2],2.64 L/kg
same,clearance,[3],8.05 mL/min/kg
same,AUC(0-inf),[4],2110 ng·h/mL
same,bioavailability,[5],33.9%
same,AUC(0-t) at 24 h,[6],2060 ng·h/mL
same,IC50,[7],22.5 nM
same,microsomal CLint at 1 µM,[8],3.8 µL/min/mg
same,Activity,[9],Active
same,Activity,[10],Non-Toxic
same,Activity,[11],Active
same,Activity,[12],Active
same,Activity,[13],Dose-Dependent Effect
same,fold change (FC),[14],11
same,Activity,[15],inactive
same,Activity,[16],Dose-Dependent Effect
same,Tmax,[17],4.8 min
same,Cmax,[18],26100 ng/mL
same,AUC(0-t) at 24 h,[19],7120 ng·h/mL
same,AUC(0-inf),[20],7140 ng·h/mL
same,CL/F,[21],23.6 mL/min/kg
same,Vz,[22],4.692 L/kg
same,MRT inf,[23],33.6 min
same,MRT inf,[24],92.4 min
same,Tmax,[25],30 min
same,Cmax,[26],3040 ng/mL
same,AUC(0-t) at 24 h,[27],4480 ng·h/mL
same,AUC(0-inf),[28],4490 ng·h/mL
same,half-life,[29],70.2 min
same,CL/F,[30],37.4 mL/min/kg
same,Vz,[31],4.532 L/kg
same,MRT inf,[32],100 min
same,bioavailability,[33],35.3%
same,AUC(0-t) at 24 h,[34],1380 ng·h/mL
same,AUC(0-inf),[35],1390 ng·h/mL
same,half-life,[36],19.8 min
same,clearance,[37],12 mL/min/kg
same,Vd,[38],0.345 L/kg
same,MRT inf,[39],31.8 min
same,Activity,[40],Non-Toxic
same,Activity,[41],Non-Toxic
same,Activity,[42],Non-Toxic
same,Activity,[43],Non-Toxic
same,Activity,[44],Non-Toxic
same,Activity,[45],Non-Toxic
same,Activity,[46],Non-Toxic
same,Activity,[47],Non-Toxic
same,Activity,[48],Non-Toxic
same,Activity,[49],Non-Toxic
same,Activity,[50],Non-Toxic
same,Activity,[51],Non-Toxic
same,Activity,[52],Non-Toxic
same,Activity,[53],Non-Toxic
same,Activity,[54],Non-Toxic
same,Activity,[55],Non-Toxic
